Results on six compounds are retold here after patent publication US8034796B2, “Glucosamine and glucosamine/anti-inflammatory mutual prodrugs, compositions, and methods” (The University of Georgia Research Foundation, Inc., priority 2004, dated 2011).

In general, pKa refers to the pH at which an ionisable group is half protonated.

Molecules are shown by their SMILES. Like-named read-outs stand apart in the source and are kept apart here. Where only a bound is given, the exact number is not on record here.

For series [1] the following is noted: cited from earlier work.
For series [2] the following is noted: literature; cited from earlier work.
For series [3] the following is noted: cited from earlier work. The source holds these as a separate data set.
Series [4] is classed as in vitro ADME, snake. As to the method:
In vitro transport (diffusion) was evaluated by Franz cell diffusion experiments using shed snakeskin. Shed snakeskin is widely recognized as a sufficient model membrane to human skin for preliminary permeability studies due to the similarity in its composition to the human stratum corneum.
The shed snakeskin was hydrated in 0.1% aqueous sodium azide solution for 48 hours at room temperature. The skins were mounted to three Franz receptor cells filled with 0.1 M pH7 phosphate buffer. The receptor solution was maintained at 37° C. and stirred with a magnetic stirrer. The donor cells were clamped to each receptor cell, with the skin mounted between the receptor and donor cells, and the donor cells were filled with 100 milligrams (mg) each of glucosamine HCl (e.g., cell 1), N-acetyl glucosamine (e.g., cell 2), and glucosamine pentaacetyl (e.g., cell 3) in a 1 milliliter (ml) DMSO solution. The skin surface exposed to diffusion was 2.54 cm^2 (1.8 cm diameter) and the receptor cell volume was 6 cm^3. The system was allowed to equilibrate for two hours before samples were taken.
Twenty microliter (μl) samples of receptor solution were taken at 5, 10, 20, 40, 80, 160, and 240 minute intervals and replaced with fresh buffer. A ten μl aliquot of each sample was analyzed by high performance liquid chromatography with pulsed electrochemical detection.

Series [5] can be described thus: Oil/water partition coefficient, n-hexane/phosphate buffer. Format: physicochemical. As to conditions: 37° C., 24 hours. The procedure: The oil/water partition coefficient for NAG was determined using n-hexane/phosphate buffer (pH 5.5 6, 6.73, and 7.4, 0.1 M) and n-hexane/water (Bemacki et al., J. Supramolecular Structure, 7:235-250 (1977)). In each case 5 ml of n-hexane was mixed with aqueous solutions containing NAG and shaken at 37° C. for 24 hours. The mixture was afterwards centrifuged and the organic and aqueous phases separated. The NAG concentration in the filtrates was determined by HPAE-PAD after the appropriate dilution.

A short description of series [6]: In-vitro membrane permeation of NAG through shed snakeskin (Franz cell; enhancers, DMSO, ethanol/buffer). Format: in vitro ADME, snake. An excerpt:
Shed snakeskins were used as a model membrane for permeation studies using the NAG suspensions in known membrane permeation enhancers; ethanol, oleic acid, isopropyl myristate, and isopropyl palmitate; saturated solutions of NAG in water and in phosphate buffer; as well as in a saturated DMSO solution and phosphate buffer (pH 5.5) containing ethanol at 2%, 5%, 10%, 25%, and 50% solutions.
The skins were hydrated in 0.1% aqueous sodium azide solution at room temperature for 48 hrs. Franz-cell diffusions experiments were carried out. In general the receptor cell was filled with 7.4 pH 0.1 M phosphate buffer and the donor cell filled with a solution or suspension. For the phosphate buffer (pH 5.5) containing ethanol at 2%, 5%, 10%, 25%, and 50% solutions in the donor phase, the receptor phase consisted of phosphate buffer (pH 5.5, 0.1 M). The receptor solution was maintained at 37° C. and stirred with a magnetic stirrer.
The snake skins were mounted between the receptor and donor cells. The surface exposed to diffusion was 2.54 cm^2 (diameter 1.8 cm) and the receptor cell volume was 6 cm^3. The donor cell was covered with plastic film. The system was allowed to equilibrate at 37° C. for two hours before each experiment. To the donor cells, 5 ml of the NAG-enhancer suspension or solution was added. Samples were taken at intervals over a 24-hour period, 200-μl samples of receptor solutions were taken and replaced with fresh buffer; experiments were conducted in triplicate. The amounts of NAG that permeated through the snakeskin were determined by HPAE-PAD.
Steady state flux (Jss) for NAG (mg/cm^2/h) was calculated from its increasing amount in the receptor medium (Bach et al., Eur. J. Pharm. Biopharm, 46:1-13 (1998)). NAG's permeability coefficient (kp) in cm/h was calculated from known physiochemical parameters, (Hadgraft et al., “Feasibility Assessment in Topical and Transdermal Delivery: Mathematical Models and In Vitro Studies,” in Transdermal Drug Delivery. 2nd Ed. Marcel Dekker, Inc., pages 1-23 (2003)). Lag time (tlag) was determined graphically from the cumulative amount of drug released per unit area (mg/cm^2) versus time plots. A square root of time (t^1/2) versus cumulative amount of drug released per unit area (mg/cm^2) was obtained to monitor NAG in vitro release rate (mg/cm^2), (Guidance for Industry: SUPAC-SS Semisolid Dosage Forms. Scale-up and Postapproval Changes Chemistry, Manufacturing, and Control; In Vitro Release Testing and In Vivo Bioequivalence Documentation. US Department of Health and Human Services, Food and Drug Administration, Center for. Drug Evaluation and Research, May 1997).

A short description of series [7]: In-vitro membrane permeation of NAG from lecithin suspensions and pluronic organo-gel formulations across shed snakeskin. In kind it is in vitro ADME, snake. The procedure:
Twenty percent poloxamer 407 (PLURONIC F127; Polyethylene-Polypropylene Glycol) gels were made by standard methods e.g. dissolving the poloxamer into cold water under refrigeration for 24 hours to produce the pluronic gel phase. NAG was incorporated into the pluronic gel phase. The final formulations were prepared via the emulsification of the select organic phase with the pluronic gel phase using luer-lock connected syringes.
Shed snakeskins were used as the model membrane for these permeation studies using the NAG semi-solid gel formulations. The skins were hydrated in 0.1% aqueous sodium azide solution at room temperature for 48 hrs. Franz-cell diffusions experiments were carried out. In general the receptor cell was filled with a 7.4 pH 0.1 M phosphate buffer. The receptor solution was maintained at 37° C. and stirred with a magnetic stirrer. The snakeskins were mounted between the receptor and donor cells. The surface exposed to diffusion was 2.54 cm^2 (diameter 1.8 cm) and the receptor cell volume was 6 cm^3. The donor cell was covered with plastic film. The system was allowed to equilibrate at 37° C. for two hours before each experiment. The donor cells were filled with a 5 ml of the semisolid NAG pluronic-organo-gel formulation. Samples (N=3) were taken at intervals over a 48-hour period, 200-μl samples of receptor solutions were taken and replaced with fresh buffer; experiments were conducted in triplicate. The amounts of NAG that permeated through the snakeskin were determined by HPAE-PAD.
Steady state flux (Jss) for NAG (mg/cm^2/h) was calculated from its increasing amount in the receptor medium (Bach et al., Eur. J. Pharm. and Biopharm., 46:1-13 (1998)). NAG's permeability coefficient (kp) in cm/h was calculated from known physiochemical parameters (Hadgraft et al., “Feasibility Assessment in Topical and Transdermal Delivery: Mathematical Models and In Vitro Studies,” in Transdermal Drug Delivery, 2nd Ed. Marcel Dekker, Inc., pages 1-23 (2003)). Lag time (tlag) was determined graphically from the cumulative amount of drug released per unit area (mg/cm^2) versus time (h) plots. A square root of time (t^1/2) versus cumulative amount of drug released per unit area (mg/cm^2) was obtained to monitor NAG in vitro release rate (mg/cm^2) (Guidance for Industry: SUPAC-SS Semisolid Dosage Forms. Scale-up and Postapproval Changes Chemistry, Manufacturing, and Control; In Vitro Release Testing and In Vivo Bioequivalence Documentation. US Department of Health and Human Services, Food and Drug Administration, May 1997).

Series [8] can be described thus: Solubility measurements of NAG. Format: physicochemical. As to the method: The solutions were centrifuged for 5 min at 9000 rev/min and the supernatant filtered with cellulose acetate membrane filters (0.45 μm pore size) (Dionex, Sunnyvale Calif.). The NAG concentration in each filtrate was determined by HPAE-PAD after the appropriate dilution.
The conditions of series [9]: cited from earlier work. This is another data set of the same source.
Where [10] appears, read: phosphate buffer (pH 5.5) with 2% ethanol.
[11] abbreviates: phosphate buffer (pH 5.5) with 5% ethanol.
Setting [12] is: phosphate buffer (pH 5.5) with 10% ethanol.
Setting [13] is: phosphate buffer (pH 5.5) with 25% ethanol.
Setting [14] is: phosphate buffer (pH 5.5) with 50% ethanol.
Where [15] appears, read: saturated DMSO donor, pH 7.4 phosphate buffer receptor.
Setting [16] is: lecithin-vitamin E (1:1) suspension.

`CCC(NC(C)C)C(O)c1ccc(O)c2[nH]c(=O)ccc12` (stereo not shown) [procaterol]: the octanol-water partition coefficient in [1] (pH 7.7) is given as −0.37.
In the case of `CC(C)Cc1ccc(C(C)C(=O)O)cc1` (stereo not shown) [ibuprofen], the “transport across shed snake skin” value in [2] is “transported”.
In the case of `N[C@H]1C(O)O[C@H](CO)[C@@H](O)[C@@H]1O` (stereo partly shown) [glucosamine], the bioavailability in [3] (oral administration) was 12-13%. In addition, in series [3] (oral dose), the “oral dose absorbed and excreted” value is reported as “approximately 87%”; the “oral dose reaching osteoarthritic joints” value is < 1%; the “oral dose widely distributed in the body” value was < 13%.
For `CN1CC[C@]23c4c5ccc(O)c4O[C@H]2C(=O)CC[C@@]3(O)[C@H]1C5` [oxymorphone], the octanol-water partition coefficient in [1] (pH 7.4) is reported as 0.0.
Turning to `Cl.N[C@H]1C(O)O[C@H](CO)[C@@H](O)[C@@H]1O` (stereo partly shown) [glucosamine HCl, Glucosamine HCl, reference compound], the “transport across shed snake skin” value in [4] is “not transported”.
In the case of `CC(=O)N[C@H]1C(O)O[C@H](CO)[C@@H](O)[C@@H]1O` (stereo partly drawn) [NAG, N-acetyl-D-glucosamine], the “transport across shed snake skin” value in [4] is “highly transported”. For the same compound, the “transport (receptor cell volume analyzed)” value in series [4] (snake, 100 mg/ml, pH 7) is recorded as “over 50%”. The “partition coefficient n-hexane/pH 5.5 buffer” value in series [5] was found to be 0.252. Further, in series [5], the “partition coefficient n-hexane/pH 6.0 buffer” value is reported as 0.194. In series [5], the “partition coefficient n-hexane/pH 6.73 buffer” value worked out at 0.092. In addition, the “partition coefficient n-hexane/pH 7.4 buffer” value in [5] was 0.091. The “NAG transport from suspensions of membrane permeability enhancers” value in series [6] (ethanol, oleic acid, isopropyl myristate and isopropyl palmitate suspensions) is “Negligible”. In addition, the “In Vitro release rate” value in [6] (setting [10]) was 286.03 μg/cm^2; in series [6] (setting [11]) it was 303.61 μg/cm^2; in [6] (setting [12]), 537.49 μg/cm^2; in series [6] (setting [13]), 523.06 μg/cm^2; in series [6] (setting [14]) it was 198.02 μg/cm^2; in series [6] (setting [15]), 186.64 mg/cm^2. Also, the Jss in series [6] (setting [10]) was found to be 112.61 mg/cm^2/h; in [6] (setting [11]) it was 119.53 mg/cm^2/h; in [6] (setting [12]), 211.61 mg/cm^2/h; in series [6] (setting [13]), 205.93 mg/cm^2/h; in [6] (setting [14]), 77.96 mg/cm^2/h; in [6] (setting [15]) it was 73.48 mg/cm^2/h. The lag time result in [6] (saturated DMSO solution) is reported as “no lag time”. The “in vitro release rate” value in series [6] (saturated DMSO solution, FIG. 13) came to 73.48 μg/cm^2. In addition, the Papp was 203 ×10⁻⁶ cm/s in [6] (snake, calculated from known physiochemical parameters, read-out: permeability coefficient kp (converted)) and 1.39 ×10⁻⁶ cm/s in [7] (snake, pH 7.4, lecithin-vitamin E (1:1) suspension, read-out: permeability coefficient kp (converted)). In series [6] (water or phosphate buffer solutions (pH 5.5, 6.0, 6.73, and 7.4; 0.1 M)), the “permeation from aqueous solutions” value is reported as “No permeation”. Further, the “transport in aqueous only vehicles” value in series [7] (experiments not reported here) is on record as “not transported”. In addition, the “NAG transport from suspensions” value in series [7] (lecithin-isopropyl palmitate and vitamin E suspensions (100 mg/ml)) is “Negligible (below the limit of detection)”. Further, the Release rate in [7] (setting [16]) worked out at 13.71 μg/cm^2. Further, in [7] (setting [16]), the “steady state flux Jss” value is on record as 4.23 μg/cm^2/h. The values for the solubility entry in series [8] (ethanol) and in [8] (phosphate buffer) were “insignificantly soluble” and “highly soluble”, respectively. In series [9], the pKa is on record as 6.73. Besides, in series [1] (pH 7.4), the octanol-water partition coefficient is 0.017.
